Test results taken from article PMC11911254 (Pharmacological Reports, 2025).
Where “and” joins values, the source holds several entries; their conditions need not be identical. Equal values may be shown once.

Assay: Concentration of paracetamol and its metabolites in plasma, CSF and brain cortex by LC-MS/MS
Protocol: Drug injection protocol is illustrated in Fig. 1.
Male and female postnatal P4 pups and 7–8 week-old non-pregnant females were used. […] In combination therapy experiments, this dose was accompanied by one of the 7 other drugs (Table 1). For all experiments, animals were terminally anesthetized 30 min after the drug injection using inhaled isoflurane (IsoFlo 100% w/w, Abbott Laboratories), and blood, CSF, and brain samples were collected. Blood was collected directly from the right cardiac ventricle, CSF from the cisterna magna, and cortical brain samples from the frontal/parietal lobes dorsal to the lateral ventricles as described previously.
Pregnant E19 dams were anesthetized with ip urethane injection (25% w/v urethane, Sigma, 1 ml/100 g body weight) and placed on a 39 °C heating pad in the supine position. An endotracheal catheter was inserted to maintain a clear airway. Catheters were inserted into the femoral vein and artery for iv drug administration and arterial blood sampling respectively. The cannula was flushed with 0.5 ml of heparinized saline (Hospira Inc, 5,000 units/ml) after drug administration and following each arterial blood sample. Following drug administration to the dams, fetuses were exteriorized and serially collected starting at 30 min post-maternal injection. […] At collection, the viability of each fetus was assessed (presence of a heartbeat, the colour of the umbilical vessels) and blood, CSF, and brain samples were taken along with a time-matched maternal blood sample from the femoral artery. At the end of the experiment, a final maternal blood sample was taken directly from the left cardiac ventricle, and CSF and brain samples were collected.
This method has been described previously for valproate, lamotrigine, and olanzapine and was applied in the present study. Simultaneous quantification was performed for all compounds in plasma, brain, and CSF samples following the addition of respective stable isotope-labeled internal standards.
Linear response range was determined in untreated control rat plasma for each compound at 0.1, 1, 10, 50, 100, 200, 400, and 800 µg/ml.

[1] = E19 rats, maternal iv paracetamol 15 mg/kg + cimetidine 11 mg/kg (PARA+CIM, n=10), median (IQR)
[2] = E19 rats, maternal iv paracetamol 15 mg/kg + digoxin 0.03 mg/kg (PARA+DIG, n=9), median (IQR)
[3] = E19 rats, maternal iv paracetamol 15 mg/kg + lamotrigine 6 mg/kg (PARA+LTG, n=10), median (IQR)
[4] = E19 rats, maternal iv paracetamol 15 mg/kg + olanzapine 0.15 mg/kg (PARA+OLZ, n=10), median (IQR), all values if <3 detected
[5] = E19 rats, maternal iv paracetamol 15 mg/kg + valproate 30 mg/kg (PARA+VPA, n=10), median (IQR)
[6] = E19 rats, maternal iv paracetamol 15 mg/kg + valproate 30 mg/kg (PARA+VPA, n=10), median (IQR), all values if <3 detected
[7] = E19 rats, maternal iv paracetamol 15 mg/kg monotherapy (PARA, n=10), median (IQR)
[8] = P4 rats, 30 min after ip paracetamol 15 mg/kg + cimetidine 11 mg/kg (PARA+CIM, n=4), median (IQR)
[9] = P4 rats, 30 min after ip paracetamol 15 mg/kg + digoxin 0.03 mg/kg (PARA+DIG, n=4), median (IQR)
[10] = P4 rats, 30 min after ip paracetamol 15 mg/kg + fluvoxamine 1.5 mg/kg (PARA+FLX, n=4), median (IQR)
[11] = P4 rats, 30 min after ip paracetamol 15 mg/kg + fluvoxamine 1.5 mg/kg (PARA+FLX, n=4), median (IQR) or individual values
[12] = P4 rats, 30 min after ip paracetamol 15 mg/kg + lithium 3.2 mg/kg (PARA+Li, n=4), median (IQR)
[13] = P4 rats, 30 min after ip paracetamol 15 mg/kg + olanzapine 0.15 mg/kg (PARA+OLZ, n=4), median (IQR)
[14] = P4 rats, 30 min after ip paracetamol 15 mg/kg monotherapy (PARA, n=4), median (IQR)
[15] = non-pregnant adult rats, 30 min after ip paracetamol 15 mg/kg + fluvoxamine 1.5 mg/kg (PARA+FLX, n=4), median (IQR)
[16] = non-pregnant adult rats, 30 min after ip paracetamol 15 mg/kg + fluvoxamine 1.5 mg/kg (PARA+FLX, n=4), median (IQR), individual values if <3 samples
[17] = non-pregnant adult rats, 30 min after ip paracetamol 15 mg/kg + olanzapine 0.15 mg/kg (PARA+OLZ, n=4), median (IQR)
[18] = non-pregnant adult rats, 30 min after ip paracetamol 15 mg/kg monotherapy (PARA, n=6), median (IQR)
[19] = P4 rats, 30 min after ip paracetamol 15 mg/kg + lamotrigine 6 mg/kg (PARA+LTG, n=5), median (IQR)
[20] = P4 rats, 30 min after ip paracetamol 15 mg/kg + valproate 30 mg/kg (PARA+VPA, n=4), median (IQR) or individual values
[21] = non-pregnant adult rats, 30 min after ip paracetamol 15 mg/kg + digoxin 0.03 mg/kg (PARA+DIG, n=3), median (IQR)
[22] = non-pregnant adult rats, 30 min after ip paracetamol 15 mg/kg + lamotrigine 6 mg/kg (PARA+LTG, n=3), median (IQR), individual values if <3 samples

Which “Concentration in CSF” value [1] does the source give for `CC(=O)Nc1ccc(O[C@@H]2O[C@H](C(=O)O)[C@@H](O)[C@H](O)[C@H]2O)cc1` [Paracetamol-Glucuronide, paracetamol-glucuronide] here?
Its value is “N.D. (N.D. (not detected) are values <0.01μg/ml)”.

What about the Concentration in brain [1] of the same molecule?
The Concentration in brain was “N.D. (N.D. (not detected) are values <0.01μg/ml)”.

And the “Concentration in CSF” value [2]?
The value was 0.2 µg/mL.

And the Concentration in brain [2]?
The Concentration in brain was 0.5 µg/mL.

And the “Concentration in CSF” value [3]?
Its value is “N.D. (N.D. (not detected) are values <0.01μg/ml)”.

What about the Concentration in brain [3] of the same molecule?
The Concentration in brain was “N.D. (N.D. (not detected) are values <0.01μg/ml)”.

And the Concentration in brain [4]?
Its Concentration in brain is 0.7 µg/mL.

What about the “Concentration in CSF” value [5] of the same molecule?
The value was “N.D. (N.D. (not detected) are values <0.01μg/ml)”.

And the Concentration in brain [6]?
The Concentration in brain was “N.D. (N.D. (not detected) are values <0.01μg/ml)”.

And the “Concentration in CSF” value [7]?
Its value is “N.D. (N.D. (not detected) are values <0.01μg/ml)”.

What about the Concentration in brain [7] of the same molecule?
The Concentration in brain was “N.D. (N.D. (not detected) are values <0.01μg/ml)”.

What about the “Concentration in CSF” value [8] of the same molecule?
Its value is 0.2 (0.04) µg/ml.

What about the “Concentration in CSF” value [9] of the same molecule?
Its value is 0.1 (0.03) µg/ml.

And the Concentration in brain [9]?
Its Concentration in brain is 0.1 µg/mL.

What about the “Concentration in CSF” value [10] of the same molecule?
The value was 0.2 (2) µg/ml.

What about the Concentration in brain [11] of the same molecule?
The Concentration in brain was 0.1 µg/mL.

And the “Concentration in CSF” value [12]?
The value was 0.1 (0.05) µg/ml.

And the Concentration in brain [12]?
Its Concentration in brain is 0.2 µg/mL.

And the “Concentration in CSF” value [13]?
Its value is 0.5 µg/mL.

What about the “Concentration in CSF” value [14] of the same molecule?
Its value is 0.2 (0.1) µg/ml.

And the “Concentration in CSF” value [15]?
The value was 0.05 (0.04) µg/ml.

And the Concentration in brain [16]?
The Concentration in brain was 0.2 µg/mL and 1 µg/mL.

And the “Concentration in CSF” value [17]?
Its value is 0.1 µg/mL.

What about the Concentration in brain [17] of the same molecule?
The Concentration in brain was 0.1 µg/mL.

And the Concentration in brain [18]?
The Concentration in brain was 2.0 µg/mL.

And the “change in plasma concentration following combination therapy” value (rat, in vivo)?
The value was “no significant changes”.

Which results are given for `CC(=O)Nc1ccc(OS(=O)(=O)O)cc1` [Paracetamol-Sulfate, paracetamol-sulfate]?
Concentration in CSF [1]: 0.06 (0.04) µg/ml; Concentration in brain [1]: 0.02 (0.02) µg/ml; Concentration in CSF [2]: 0.05 (0.04) µg/ml; Concentration in brain [2]: 0.01 (0.01) µg/ml; Concentration in plasma [2]: 0.9 (0.4) µg/ml; Concentration in plasma (E19 rats, maternal iv paracetamol 15 mg/kg + digoxin 0.03 mg/kg (PARA+DIG, n=9), median (IQR), listed as paracetamol-sulfate): 0.9 µg/mL; Concentration in CSF [3]: 0.08 (0.05) µg/ml; Concentration in brain [3]: 0.02 (0.02) µg/ml; Concentration in plasma [3]: 1.1 (0.4) µg/ml; Concentration in plasma (E19 rats, maternal iv paracetamol 15 mg/kg + olanzapine 0.15 mg/kg (PARA+OLZ, n=10), median (IQR)): 1.4 (0.5) µg/ml; Concentration in CSF [4]: 0.09 (0.06) µg/ml; Concentration in brain [4]: 0.05 (0.03) µg/ml; Concentration in CSF [5]: 0.06 (0.03) µg/ml; Concentration in plasma [6]: 0.9 (0.3) µg/ml; Concentration in plasma (E19 rats, maternal iv paracetamol 15 mg/kg + valproate 30 mg/kg (PARA+VPA, n=10), median (IQR), all values if <3 detected, listed as paracetamol-sulfate): 0.9 µg/mL; Concentration in CSF [7]: 0.09 (0.05) µg/ml; Concentration in brain [7]: 0.04 (0.03) µg/ml; Concentration in plasma [7]: 1.5 (0.4) µg/ml; Concentration in plasma (E19 rats, maternal iv paracetamol 15 mg/kg monotherapy (PARA, n=10), median (IQR), listed as paracetamol-sulfate): 1.5 µg/mL; Concentration in plasma (P4, monotherapy and combination therapy with any of the drugs investigated): around 5 µg/ml; Concentration in CSF [8]: 0.1 (0.02) µg/ml; Concentration in brain [8]: 0.06 (0.02) µg/ml; Concentration in plasma [8]: 7.5 (1.7) µg/ml; Concentration in CSF [9]: 0.1 (0.02) µg/ml; Concentration in brain [9]: 0.07 (0.04) µg/ml; Concentration in plasma [9]: 7.6 (3.3) µg/ml; Concentration in CSF [10]: 0.1 (1.6) µg/ml; Concentration in plasma [10]: 5.7 (1.4) µg/ml; Concentration in brain [11]: 0.04 µg/mL and 0.05 µg/mL; Concentration in CSF [19]: 0.07 (0.02) µg/ml; Concentration in brain [19]: 0.06 (0.02) µg/ml; Concentration in plasma [19]: 3.8 (0.9) µg/ml; Concentration in CSF [12]: 0.1 (0.04) µg/ml; Concentration in brain [12]: 0.08 (0.01) µg/ml; Concentration in plasma [12]: 7.2 (1.2) µg/ml; Concentration in CSF [13]: 0.05 ± 0.02 µg/mL; Concentration in brain [13]: 0.02 µg/mL; Concentration in plasma [13]: 2.7 (1.0) µg/ml; Concentration in CSF (P4 rats, 30 min after ip paracetamol 15 mg/kg + valproate 30 mg/kg (PARA+VPA, n=4), median (IQR)): 0.06 (0.01) µg/ml; Concentration in brain [20]: 0.05 µg/mL; Concentration in plasma [20]: 4.1 (2.1) µg/ml; Concentration in CSF [14]: 0.09 (0.05) µg/ml; Concentration in brain [14]: 0.09 (0.03) µg/ml; Concentration in plasma [14]: 3.1 (1.8) µg/ml; change in plasma concentration following combination therapy (adults, any of the drugs investigated, Kruskal-Wallis test): no significant changes; Concentration in brain (non-pregnant adult rats, 30 min after ip paracetamol 15 mg/kg + cimetidine 11 mg/kg (PARA+CIM, n=3), median (IQR)): 0.2 µg/mL; Concentration in plasma (non-pregnant adult rats, 30 min after ip paracetamol 15 mg/kg + cimetidine 11 mg/kg (PARA+CIM, n=3), median (IQR), individual values if <3 samples): 5.5 (1.4) µg/ml; Concentration in CSF [21]: 0.02 µg/mL; Concentration in plasma [21]: 7.2 (2.2) µg/ml; Concentration in brain (non-pregnant adult rats, 30 min after ip paracetamol 15 mg/kg + digoxin 0.03 mg/kg (PARA+DIG, n=3), median (IQR), individual values if <3 samples): 0.02 µg/mL; Concentration in CSF [15]: 0.07 (0.03) µg/ml; Concentration in plasma [15]: 12.9 (1.0) µg/ml; Concentration in brain [16]: 0.1 (0.4) µg/ml; Concentration in CSF [22]: 0.02 µg/mL and 0.04 µg/mL; Concentration in brain [22]: 0.1 µg/mL; Concentration in plasma [22]: 11.5 (0.7) µg/ml; Concentration in brain [17]: 0.2 (0.2) µg/ml; Concentration in plasma [17]: 14.8 (2.7) µg/ml; Concentration in brain (non-pregnant adult rats, 30 min after ip paracetamol 15 mg/kg + valproate 30 mg/kg (PARA+VPA, n=3), median (IQR)): 0.1 µg/mL; Concentration in plasma (non-pregnant adult rats, 30 min after ip paracetamol 15 mg/kg + valproate 30 mg/kg (PARA+VPA, n=3), median (IQR), individual values if <3 samples): 12.1 (0.4) µg/ml; Concentration in CSF [18]: 0.02 (0.01) µg/ml; Concentration in brain [18]: 0.1 (0.1) µg/ml; Concentration in plasma [18]: 8.8 (5.8) µg/ml
